Data: patent publication US12187742B2 (XRAD Therapeutics, Inc., priority 2018, dated 2025)
Structures can show the parent of a compound that is named as a salt.

Key:
ATM = ATM (Homo sapiens (Human), UniProt Q13315); assay: ATM in Cell Western Assay (pKAP1 in etoposide-treated MCF-7 cells); format: cell-based; conditions: MCF-7 cells, etoposide 100 μM, 1 hr, pKAP1 readout
Outline: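 Cells received compounds in a 10-dose, 3-fold series from a 1 μM final top concentration, then 100 μM etoposide, for 1 hr at 37° C. They were then fixed with paraformaldehyde and permeabilized with 0.1% Triton X-100. After immunostaining, plates were scanned on an infrared imager.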

DNA-PK = DNA-PK (Homo sapiens (Human), UniProt P78527); assay: DNA-PK Enzyme-Linked Immunosorbent Assay (phosphorylation of GST-p53 (1-101) peptide); format: biochemical; conditions: ELISA, ATP 20 μM
Procedure: Assay of Compounds ATM and DNA-PK Inhibition
remove wash solution, turn plate upside down onto a thin paper towel and centrifuge at 1000 rpm for 1 min to absorb all wash buffer. Clean the bottom of plate with moist lint free paper. Scan plate immediately using ODYSSEY CLx (LI-COR) for the best results. DNA-PK Enzyme-Linked Immunosorbent Assay:
On day one, coat 96-well plate (ThermoFisher. Cat #: 442404) with GST-p53 (1-101) peptide (purified by Pharmaron, BCS department) by diluting 3 μg of GST-p53 each well with 0.1 M Na2CO3/NaHCO3, pH 9.6. Incubate the plate overnight at 4° C. The second day, remove coating buffer, wash 2× with PBST (1×PBS containing 0.1% Tween-20). Then add DNA-PK enzyme solution (Invitrogen, #PR9107A; the final DNA-PK concentration is 0.1 μg/mL), series dilution compounds (the final top concentration is 100 nM, 3 fold series dilution, with total 10 doses) and ATP solution (the final ATP concentration is 20 μM) to the 96-well plate. Incubate the plate at 25° C. for 1 hour. Then wash 3× with PBST (1×PBS containing 0.1% Tween-20). Block the plate with PBST+ 1% BSA at 4° C. overnight. The third day, wash 4× with PBST (1×PBS containing 0.1% Tween-20). Then add Phospho-p53 primary antibody (cell signaling Technology, #9286, Phospho-p53 (Ser15) (16G8) Mouse mAb) (1/1000) to each well. Seal with plate and incubate the plate for 1 h at 37° C. Wash 4× with PBST (1×PBS containing 0.1% Tween-20), add 100 μL of HRP-linked secondary antibody (Cell signaling Technology, #7076, Anti-mouse IgG, HRP-linked Antibody) (1/1000) to each well. Seal with tape and incubate the plate for 30 min at 37° C. Wash 4× with PBST (1×PBS containing 0.1% Tween-20), add 100 μL of TMB (Cell signaling Technology, #7004) substrate to each well. Seal with tape and incubate the plate for 10 min at 37° C. Then add 100 μL of Stop solution (Cell signaling Technology, #7002) to each well. Read the plate at 450 nm to detect absorption.

Chain of ATM (Q13315 whole entry): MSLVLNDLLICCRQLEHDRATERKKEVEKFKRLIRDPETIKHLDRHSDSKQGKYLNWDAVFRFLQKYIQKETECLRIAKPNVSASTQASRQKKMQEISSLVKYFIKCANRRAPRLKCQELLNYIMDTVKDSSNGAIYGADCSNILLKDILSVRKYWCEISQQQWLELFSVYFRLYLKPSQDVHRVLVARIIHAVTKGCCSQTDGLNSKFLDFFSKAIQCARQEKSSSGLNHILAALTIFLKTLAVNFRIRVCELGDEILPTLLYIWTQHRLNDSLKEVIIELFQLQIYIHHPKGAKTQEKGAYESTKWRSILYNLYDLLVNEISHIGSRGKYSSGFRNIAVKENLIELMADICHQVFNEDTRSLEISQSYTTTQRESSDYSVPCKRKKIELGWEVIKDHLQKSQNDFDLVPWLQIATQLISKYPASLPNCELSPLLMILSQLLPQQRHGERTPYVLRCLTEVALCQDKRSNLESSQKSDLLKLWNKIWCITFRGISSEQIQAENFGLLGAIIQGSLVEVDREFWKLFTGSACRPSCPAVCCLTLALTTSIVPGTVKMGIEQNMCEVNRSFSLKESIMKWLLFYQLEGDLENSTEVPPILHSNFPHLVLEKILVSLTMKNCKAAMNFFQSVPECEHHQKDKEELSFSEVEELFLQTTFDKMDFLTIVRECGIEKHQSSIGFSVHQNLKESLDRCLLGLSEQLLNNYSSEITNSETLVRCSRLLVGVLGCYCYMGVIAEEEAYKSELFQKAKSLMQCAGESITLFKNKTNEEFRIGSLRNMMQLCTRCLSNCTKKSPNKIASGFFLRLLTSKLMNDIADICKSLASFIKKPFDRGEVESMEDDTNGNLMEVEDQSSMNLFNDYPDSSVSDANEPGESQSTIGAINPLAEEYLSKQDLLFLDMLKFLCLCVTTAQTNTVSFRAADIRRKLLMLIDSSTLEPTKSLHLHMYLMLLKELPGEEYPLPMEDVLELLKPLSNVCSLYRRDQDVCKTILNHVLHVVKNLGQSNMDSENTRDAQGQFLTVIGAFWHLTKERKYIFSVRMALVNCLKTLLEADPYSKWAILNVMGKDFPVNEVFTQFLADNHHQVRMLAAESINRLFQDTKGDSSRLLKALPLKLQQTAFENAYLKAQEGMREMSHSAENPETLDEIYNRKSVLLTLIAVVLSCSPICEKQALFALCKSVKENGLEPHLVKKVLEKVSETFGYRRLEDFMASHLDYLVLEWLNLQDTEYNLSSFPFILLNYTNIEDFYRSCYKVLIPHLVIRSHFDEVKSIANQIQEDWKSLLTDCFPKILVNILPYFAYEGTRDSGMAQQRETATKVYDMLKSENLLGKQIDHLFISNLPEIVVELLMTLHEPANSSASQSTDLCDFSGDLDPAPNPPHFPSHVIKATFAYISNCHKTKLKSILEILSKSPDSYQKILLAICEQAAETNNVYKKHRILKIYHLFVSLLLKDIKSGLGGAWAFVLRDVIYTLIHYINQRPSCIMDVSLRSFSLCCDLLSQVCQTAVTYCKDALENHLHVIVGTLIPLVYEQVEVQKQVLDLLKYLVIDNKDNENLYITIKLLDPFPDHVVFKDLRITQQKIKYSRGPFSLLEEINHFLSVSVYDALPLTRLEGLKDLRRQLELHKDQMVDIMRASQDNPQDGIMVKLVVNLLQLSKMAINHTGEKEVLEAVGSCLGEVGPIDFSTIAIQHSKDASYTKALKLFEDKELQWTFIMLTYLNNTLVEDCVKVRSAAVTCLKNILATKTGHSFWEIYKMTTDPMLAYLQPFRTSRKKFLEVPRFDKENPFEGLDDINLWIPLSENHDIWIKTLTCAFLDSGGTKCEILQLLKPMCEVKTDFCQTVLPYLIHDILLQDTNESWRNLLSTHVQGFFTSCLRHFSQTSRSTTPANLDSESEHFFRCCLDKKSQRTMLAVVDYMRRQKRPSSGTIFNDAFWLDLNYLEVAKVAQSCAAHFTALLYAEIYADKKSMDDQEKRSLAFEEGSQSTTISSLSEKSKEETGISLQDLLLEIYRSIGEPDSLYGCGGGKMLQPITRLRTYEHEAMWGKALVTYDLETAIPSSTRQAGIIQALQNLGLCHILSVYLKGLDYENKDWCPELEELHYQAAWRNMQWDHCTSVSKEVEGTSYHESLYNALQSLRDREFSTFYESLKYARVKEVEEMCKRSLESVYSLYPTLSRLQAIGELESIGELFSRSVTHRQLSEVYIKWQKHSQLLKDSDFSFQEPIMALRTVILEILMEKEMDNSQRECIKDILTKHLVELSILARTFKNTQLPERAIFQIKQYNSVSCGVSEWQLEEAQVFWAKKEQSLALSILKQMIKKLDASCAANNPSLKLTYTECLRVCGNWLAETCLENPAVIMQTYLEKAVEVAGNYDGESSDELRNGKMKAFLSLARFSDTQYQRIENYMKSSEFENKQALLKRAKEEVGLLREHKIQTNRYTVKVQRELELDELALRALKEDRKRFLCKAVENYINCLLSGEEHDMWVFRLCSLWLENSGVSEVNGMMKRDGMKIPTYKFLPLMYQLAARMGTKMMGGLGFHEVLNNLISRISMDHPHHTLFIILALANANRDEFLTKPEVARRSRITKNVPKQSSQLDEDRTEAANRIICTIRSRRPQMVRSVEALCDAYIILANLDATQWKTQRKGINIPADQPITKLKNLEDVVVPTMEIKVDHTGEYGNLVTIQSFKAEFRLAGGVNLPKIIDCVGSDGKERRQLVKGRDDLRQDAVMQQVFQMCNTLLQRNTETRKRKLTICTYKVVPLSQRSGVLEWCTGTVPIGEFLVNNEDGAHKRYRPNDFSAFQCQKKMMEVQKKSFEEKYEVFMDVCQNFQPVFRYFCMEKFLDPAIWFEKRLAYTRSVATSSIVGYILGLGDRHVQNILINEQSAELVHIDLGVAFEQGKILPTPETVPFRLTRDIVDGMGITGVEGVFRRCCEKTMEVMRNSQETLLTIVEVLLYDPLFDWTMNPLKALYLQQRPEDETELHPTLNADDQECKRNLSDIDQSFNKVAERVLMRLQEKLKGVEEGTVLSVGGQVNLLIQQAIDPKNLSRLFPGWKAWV

IC50 (ATM) | IC50 (DNA-PK) | SMILES
1 to 100 nM | 1 to 100 nM | CN(C)CCCOc1ncc(-c2ccc3ncc4c(c3c2)C2(CCOCC2)C(=O)N4C)cc1NS(=O)(=O)c1ccccc1 [Example 33, N-(2-(3-(Dimethylamino)propoxy)-5-(3′-methyl-2′-oxo-2,2′,3′-,3′-,5,6-hexahydrospiro[pyran-4,1′-pyrrolo[2,3-c]quinolin]-8′-yl)pyridin-3-yl)benzenesulfonamide]
1 to 100 nM | 1 to 100 nM | CN(C)CCCOc1ncc(-c2ccc3ncc4c(c3c2)C2(CC2)C(=O)N4CC2COC2)cc1NS(=O)(=O)c1ccccc1 [Example 37, N-(2-(3-(Dimethylamino)propoxy)-5-(3′-(oxetan-3-ylmethyl)-2′-oxo-2′-3′-dihydrospiro [cyclopropane-1,1′-pyrrolo[2,3-c]quinolin]-8′-yl)pyridin-3-yl)benzenesulfonamide]
1 to 100 nM | 0.5 to 1 nM | CNCCOc1ncc(-c2ccc3ncc4c(c3c2)C2(CC2)C(=O)N4C)cc1NS(=O)(=O)c1ccccc1 [Example 43, N-(5-(3′-Methyl-2′-oxo-2′,3′-dihydrospiro [cyclopropane-1,1′-pyrrolo[2,3-c]quinolin]-8′-yl)-2-(2-(methylamino)ethoxy)pyridin-3-yl) benzenesulfonamide]
1 to 100 nM | < 0.5 nM | CC(C#N)c1cccc(S(=O)(=O)Nc2cc(-c3ccc4ncc5c(c4c3)C3(CC3)C(=O)N5C)cnc2OCCCN(C)C)c1 (stereo not drawn) [Example 46, 3-(1-Cyanoethyl))-N-((2-(3-(Dimethylamino)propoxy)-5-(3′-methyl-2′-oxo-2′,3′-dihydrospiro [cyclopropane-1,1′-pyrrolo[2,3-c]quinolin]-8′-yl)pyridin-3-yl)benzenesulfonamide]
0.5 to 1 nM | < 0.5 nM | CN1CCN(c2ncc(-c3ccc4ncc5c(c4c3)C3(CC3)C(=O)N5C)cc2NS(=O)(=O)c2ccccc2)CC1 [Example 49, N-(5-(3′-Methyl-2′-oxo-2′,3′-dihydrospiro[cyclopropane-1,1′-pyrrolo[2,3-c]quinolin]-8′-yl)-2-(4-methylpiperazin-1-yl)pyridin-3-yl)benzenesulfonamide]
1 to 100 nM | 1 to 100 nM | CN1CCCN(c2ncc(-c3ccc4ncc5c(c4c3)C3(CC3)C(=O)N5C)cc2NS(=O)(=O)c2ccccc2)CC1 [Example 53, N-(2-(4-Methyl-1,4-diazepan-1-yl)-5-(3′-methyl-2′-oxo-2′,3′-dihydrospiro[cyclopropane-1,1′-pyrrolo[2,3-c]quinolin]-8′-yl)pyridin-3-yl)benzenesulfonamide]
0.5 to 1 nM | > 100 nM | COc1cc(-c2ccc3ncc4c(c3c2)C2(CC2)C(=O)N4C)cnc1OCCCN(C)C [Example 54, 8′-(6-(3-(Dimethylamino)propoxy)-5-methoxypyridin-3-yl)-3′-methylspiro[cyclopropane-1,1′-pyrrolo[2,3-c]quinolin]-2′(3′-H)-one]
1 to 100 nM | 1 to 100 nM | Cc1cc(-c2ccc3ncc4c(c3c2)C2(CC2)C(=O)N4C)cnc1OCCCN(C)C [Example 57, 8′-(6-(3-(Dimethylamino)propoxy)-5-methylpyridin-3-yl)-3′-methylspiro[cyclopropane-1,1′-pyrrolo[2,3-c]quinolin]-2′(3′-H)-one]
< 0.5 nM | < 0.5 nM | CN1C(=O)C2(CC2)c2c1cnc1ccc(-c3cnc(OCCCN4CCCC4)c(NS(=O)(=O)c4ccccc4)c3)cc21 [Example 58, N-(5-(3′-Methyl-2′-oxo-2′,3′-dihydrospiro[cyclopropane-1,1′-pyrrolo[2,3-c]quinolin]-8′-yl)-2-(3-(pyrrolidin-1-yl)propoxy)pyridin-3-yl)benzenesulfonamide]
1 to 100 nM | 1 to 100 nM | CN(C)CCCOc1ncc(-c2ccc3ncc4c(c3c2)C2(CC2)C(=O)N4C)cc1OCc1ccccc1 [Example 59, 8′-(5-(Benzyloxy)-6-(3-(dimethylamino)propoxy)pyridin-3-yl)-3methylspiro [cycloproane-1,1′-pyrrolo [2,3-c]quinolin]-2′(3′-)-one]
1 to 100 nM | 1 to 100 nM | CN1C(=O)C2(CC2)c2c1cnc1ccc(-c3cnc4ncccc4c3)cc21 [Example 62, 3′-Methyl-8′-(1,8-naphthyridin-3-yl)spiro[cyclopropane-1,1′-pyrrolo[2,3-c]quinolin]-2′(3′-H)-one]
1 to 100 nM | 1 to 100 nM | CN(C)CCCOc1ncc(-c2cc3c4c(cnc3cc2F)N(C)C(=O)C42CC2)cc1NS(=O)(=O)C1CC1 [Example 66, N-(2-(3-(Dimethylamino)propoxy)-5-(7′-fluoro-3′-methyl-2′-oxo-2′,3′-dihydrospiro[cyclopropane-1,1′-pyrrolo[2,3-c]quinolin]-8′-yl)pyridin-3-yl) cyclopropanesulfonamide]

The remaining lines, values behind:

SMILES | IC50 (ATM) | IC50 (DNA-PK)
CN(C)CCCCOc1ncc(-c2ccc3ncc4c(c3c2)C2(CC2)C(=O)N4C)cc1NS(=O)(=O)c1ccccc1 [Example 35, N-(2-(4-(Dimethylamino)butoxy)-5-(3′-methyl-2′-oxo-2′,3′-dihydrospiro [cyclopropane-1,1′-pyrrolo[2,3-c]quinolin]-8′-yl)pyridin-3-yl)benzenesulfonamide] | 1 to 100 nM | 0.5 to 1 nM
CCN1C(=O)C2(CC2)c2c1cnc1ccc(-c3cnc(OCCCN(C)C)c(NS(=O)(=O)c4ccccc4)c3)cc21 [Example 42, N-(2-(3-(Dimethylamino)propoxy)-5-(3′-ethyl-2′-oxo-2′,3′-dihydrospiro [cyclopropane-1,1′-pyrrolo[2,3-c]quinolin]-8′-yl)pyridin-3-yl)benzenesulfonamide] | 1 to 100 nM | 0.5 to 1 nM
CN(C)CCCOc1ncc(-c2ccc3ncc4c(c3c2)C2(COC2)C(=O)N4C)cc1NS(=O)(=O)C1CC1 [Example 47, N-(2-(3-(Dimethylamino)propoxy)-5-(3′-methyl-2′-oxo-2′,3′-dihydrospiro [oxetane-3,1′-pyrrolo[2,3-c]quinolin]-8′-yl)pyridin-3-yl)cyclopropanesulfonamide] | 1 to 100 nM | 1 to 100 nM
CN1C(=O)C2(CC2)c2c1cnc1ccc(-c3cnc(N)nc3)cc21 [Example 48, 8′-(2-Aminopyrimidin-5-yl)-3′-methylspiro [cyclopropane-1,1′-pyrrolo [2,3-c]quinolin]-2′(3′-H)-one] | 1 to 100 nM | 0.5 to 1 nM
CN(C)CCCCOc1ncc(-c2ccc3ncc4c(c3c2)C2(CC2)C(=O)N4C)cc1NS(=O)(=O)C1CC1 [Example 56, N-(2-(4-(Dimethylamino)butoxy)-5-(3′-methyl-2′-oxo-2′,3′-dihydrospiro [cyclopropane-1,1′-pyrrolo[2,3-c]quinolin]-8′-yl)pyridin-3-yl)cyclopropanesulfonamide] | 1 to 100 nM | 1 to 100 nM
CCS(=O)(=O)Nc1cc(-c2ccc3ncc4c(c3c2)C2(CC2)C(=O)N4C)cnc1OCCCN(C)C [Example 61, N-(2-(3-(Dimethylamino)propoxy)-5-(3′-methyl-2′-oxo-2′,3′-dihydrospiro [cyclopropane-1,1′-pyrrolo[2,3-c]quinolin]-8′-yl)pyridin-3-ylethanesulfonamide hydrochloride] | 1 to 100 nM | 1 to 100 nM
CN(C)CCCOc1ccc(-c2ccc3ncc4c(c3c2)C2(CC2)C(=O)N4C)cc1NS(=O)(=O)c1ccccc1 [Example 63, N-(2-(3-(Dimethylamino)propoxy)-5-(3′-methyl-2′-oxo-2′,3′-dihydrospiro[cyclopropane-1,1′-pyrrolo[2,3-c]quinolin]-8′-yl)phenyl)benzenesulfonamide] | 0.5 to 1 nM | 1 to 100 nM
CN(C)CCCOc1ncc(-c2ccc3ncc4c(c3c2)C2(CC2)C(=O)N4C)cc1NS(C)(=O)=O [Example 64, N-(2-(3-(Dimethylamino)propoxy)-5-(3′-methyl-2′-oxo-2′,3′-dihydrospiro[cyclopropane-1,1′-pyrrolo[2,3-c]quinolin]-8′-yl)pyridin-3-yl) methanesulfonamide] | 1 to 100 nM | < 0.5 nM
CN(C)CCCOc1ncc(-c2cc3c4c(cnc3cc2F)N(C)C(=O)C42CC2)cc1NS(=O)(=O)c1ccccc1 [Example 65, N-(2-(3-(Dimethylamino)propoxy)-5-(7′-fluoro-3′-methyl-2′-oxo-2′,3′-dihydrospiro [cyclopropane-1,1′-pyrrolo[2,3-c]quinolin]-8′-yl)pyridin-3-yl) benzenesulfonamide] | 1 to 100 nM | 1 to 100 nM
